Measurements published in patent US7091238B1, “Thienylhydrazon with digitalis-like properties (positive inotropic effects)” (University of Maryland, priority 1999, dated 2006).
“Also recorded” adds a separate entry of the source.

Tests used:
[1] = test system: sarcoplasmic reticulum of human skeletal muscle fibers (vastus lateralis); assay: Induced tension in isolated human skeletal muscle fiber (sarcolemma removed); type: cell-based; conditions: 25, 50, 100 μM, SR loaded at pCa 7.0 for 3 min
Experimental: FIG. 14. Isolated human skeletal muscle fiber from the vastus lateralis (sarcolemmal membrane-free) was exposed to 0.5 mM of CaCl2 to enable maximal muscle tension (Po). The histogram show the effect of LASSBio-294 at concentrations of 25, 50 and 100 μM on induced tension in human fibers. N=6 Calibration: Vertical; 10 mm=20 mg; Horizontal, 10 mm=40 s.
Isolated muscle fiber from the vastus lateralis was exposed to 0.5 mM of CaCl2 to enable maximal muscle tension.

[2] = test system: Ca^2+-ATPase extracted from heart muscle or gastrocnemius muscle; assay: Effect on Ca2+-ATPase; type: biochemical; conditions: enzyme from rat heart or gastrocnemius muscle
Source text: (§1) Determination of phosphodiesterase direct effect was also negative.

dogs = assay: Left intraventricular and arterial pressure in intact anesthetized dogs; type: in vivo, dog; conditions: normal cardiac function, no pre-load, 1 mg kg^−1 min^−1 for 13 min
Experimental: FIG. 6. Recording of left intraventricular pressure and arterial pressure in dogs anesthetized and ventilated normally.
FIG. 6 illustrates a test that measured pressure from the hearts of intact dogs during LASSBio-294 application. Recordings were made of left intraventricular pressure and arterial pressure.
Dogs were anesthetized and normally ventilated. Recordings were made before and after application of LASSBio-294, 1 mg kg^−1 min^−1 for 13 min.

phosphodiesterase = assay: Phosphodiesterase direct effect; type: biochemical
Source text: as §1

single muscle fiber = assay: Twitch tension in single amphibian muscle fibers; type: cell-based, frog, rana pipiens
Experimental: FIG. 15. Effect of 12.5 μM of compound 294 on force development in a single muscle fiber stimulated at different frequencies. The frequency of stimulation in Hz is indicated under each trace. Top panel, stimulating cycle done in Ringer without compound 294. Middle panel, stimulating cycle done 17 min after the fiber was bathed with compound 294. Bottom panel, second cycle of stimulation done 17 min after compound 294 was washed out with Ringer. Force calibration bars are 50 mg for twitches and 10 Hz simulations and 100 mg for 30, 60, and 90 Hz.
FIG. 16. Histogram showing the effect of 12.5 μM compound 294 and after washing out LASSBio-294 on fractional twitch tension (Tx/To). Tx represents the twitch tension obtained when the fiber was bathed with the solutions indicated above each column. The order of the columns are the order in which the simulating cycles were performed.
The tests in amphibians were performed in isolated single muscle cells freshly isolated from either the semitendinous or the tibialis anterior muscles of the frog, rana pipiens. The isolated muscle cells were left resting for at least half an hour in Ringer's solution. The fibers were then stimulated with single, low-voltage, electric shocks. If fibers gave brisk twitches and had no signs of membrane damage, they were used. Otherwise, they were discarded. Healthy fibers were transferred to the experimental chamber, which consisted of a 0.3 ml narrow channel where the solutions could be changed several times within five seconds. One tendon of the fiber was gripped with a small clamp and the other tendon was attached to a hook of an Ekhart;s type force transducer. The stimulating electrode consisted of platinum wires placed to each side of the fiber. The muscle fibers were stretched 1.3 times their slack length to reach approximately an average sarcomere length of 1.6 μm.
The fibers were stimulated with single electric pulses of 0.5 msec duration and variable voltage. The voltage was increased until the threshold for contraction was reached. This voltage was then increased by 50% and the experimental protocol started. To find out if LASSBio-294 has an effect on contractility, a stimulating protocol was used consisting of a series of single twitches elicited every 3 sec. followed by different frequencies of tetanic stimulation of 10 Hz, 30 Hz, and 60 Hz. The fibers rested for three minutes between each tetanic stimulation. When the whole series of stimulations were repeated, the fibers rested for 10 min. between each series of twitches and tetanic stimulations. Fatigue was induced by repetitive cycles of electrical stimulation. Each cycle consisted of a train of electric shocks delivered at 60 Hz for 0.8 sec followed by a single twitch after 2.2 sec and repeated every 4.15 sec. […]. […]

[3] = test system: contractile system of cardiac fibers; assay: Ca2+-induced tension in Triton X-100 treated left ventricular muscle bundles; set-up: species or system Wistar rats
Experimental: FIG. 12. Muscle bundles were treated with 1% Triton X-100 for 60 min and exposed to solutions containing increasing concentrations of Ca^2+ in the presence or absence of LASSBio-294 (100 μM). Calibration: Vertical, 10 mm=20 mg; Horizontal, 10 mm=40 sec.
FIG. 13. Bundles of left ventricular muscles were treated with Triton X-100 and exposed to increasing concentrations of Ca^2+. Muscle tension expressed as % of the maximal response induced by 0.5 mM CaCl2 is graphed as a function of pCa.
b. Graphic representation of the tests in FIG. 7 showing the effect of LASSBio-294 on uptake of Ca^2+ by sarcoplasmic reticulum in isolated cardiac muscle with sarcolemma removed. FIG. 9 illustrates the effect of LASSBio-294 on tension in isolated cardiac muscle with sarcolemma removed was measured. Measurement of contraction induced by caffeine, as a function concentration of LASSBio-294 in bathing solution. FIG. 9 is a graphic representation of the effect of increasing concentrations of LASSBio-294 between 0 and 20 μM. […] FIG. 12 illustrates the effect of LASSBio-294 on sensitivity of cardiac fibers to calcium. Calcium levels can induce isometric twitch. […]
Bundles of left ventricular muscle (130 μm diameter and 1–2 mm in thickness) from Wistar rats were dissected out and mounted for measurement of isometric tension. […] Comparison of caffeine alone to caffeine in the presence of LASSBio-294 was measured.

For O=C(NN=Cc1cccs1)c1ccc2c(c1)OCO2 [LASSBio-294, 3,4-methylenedioxybenzoyl-2-thienylhydrazone], which “release of Ca^2+ from the sarcoplasmic reticulum / induced tension” value [1] is on record?
The value was “induces the release of Ca^2+; also recorded: evoked a contraction”.

And the “effect on Ca^2+-ATPase” value [2]?
Its value is “did not affect”.

What about the “left intraventricular pressure and arterial pressure” value (dogs) of the same compound?
Its value is “no change in pressure”.

What about the phosphodiesterase direct effect (phosphodiesterase) of the same compound?
The phosphodiesterase direct effect was “negative”.

What about the “increase of twitch tension vs control” value (single muscle fiber; 12.5 μM, second stimulation cycle, 17 min in compound) of the same compound?
Its value is ~50%.

And the “increase of twitch peak tension vs control” value (single muscle fiber; 12.5 μM, three minutes after bathing)?
Its value is “approximately 25%”.

What about the “twitch tension potentiation vs control after wash out” value (single muscle fiber; 17 min in Ringer after washing away 12.5 μM compound) of the same compound?
The value was “approximately 77%”.

And the “twitch force on re-exposure” value (single muscle fiber; fiber exposed again to 12.5 μM after wash out)?
The value was “decrease in twitch force”.

And the “sensitivity of muscle fibers to calcium” value [3]?
Its value is “does not change”.

And the “isometric twitch response at each level of pCa” value ([3]; Triton X-100 treated fibers, 100 μM vs control)?
The value was “greater in the presence of LASSBio-294 than in control”.
